pIC50: −log10 of the molar value. ≈ marks a conversion by molar mass, not a printed value.
Legend:
[1] = Protein binding in plasma (unknown origin); type: ADME, cell-free; details: read-out: PPB (converted)
[2] = molecular target: T1, Receptor-type tyrosine-protein kinase FLT3 (Homo sapiens, UniProt P36888); experiment: Inhibition of FLT3 (unknown origin) by FRET-based homogeneous assay
T1 sequence (P36888 whole entry): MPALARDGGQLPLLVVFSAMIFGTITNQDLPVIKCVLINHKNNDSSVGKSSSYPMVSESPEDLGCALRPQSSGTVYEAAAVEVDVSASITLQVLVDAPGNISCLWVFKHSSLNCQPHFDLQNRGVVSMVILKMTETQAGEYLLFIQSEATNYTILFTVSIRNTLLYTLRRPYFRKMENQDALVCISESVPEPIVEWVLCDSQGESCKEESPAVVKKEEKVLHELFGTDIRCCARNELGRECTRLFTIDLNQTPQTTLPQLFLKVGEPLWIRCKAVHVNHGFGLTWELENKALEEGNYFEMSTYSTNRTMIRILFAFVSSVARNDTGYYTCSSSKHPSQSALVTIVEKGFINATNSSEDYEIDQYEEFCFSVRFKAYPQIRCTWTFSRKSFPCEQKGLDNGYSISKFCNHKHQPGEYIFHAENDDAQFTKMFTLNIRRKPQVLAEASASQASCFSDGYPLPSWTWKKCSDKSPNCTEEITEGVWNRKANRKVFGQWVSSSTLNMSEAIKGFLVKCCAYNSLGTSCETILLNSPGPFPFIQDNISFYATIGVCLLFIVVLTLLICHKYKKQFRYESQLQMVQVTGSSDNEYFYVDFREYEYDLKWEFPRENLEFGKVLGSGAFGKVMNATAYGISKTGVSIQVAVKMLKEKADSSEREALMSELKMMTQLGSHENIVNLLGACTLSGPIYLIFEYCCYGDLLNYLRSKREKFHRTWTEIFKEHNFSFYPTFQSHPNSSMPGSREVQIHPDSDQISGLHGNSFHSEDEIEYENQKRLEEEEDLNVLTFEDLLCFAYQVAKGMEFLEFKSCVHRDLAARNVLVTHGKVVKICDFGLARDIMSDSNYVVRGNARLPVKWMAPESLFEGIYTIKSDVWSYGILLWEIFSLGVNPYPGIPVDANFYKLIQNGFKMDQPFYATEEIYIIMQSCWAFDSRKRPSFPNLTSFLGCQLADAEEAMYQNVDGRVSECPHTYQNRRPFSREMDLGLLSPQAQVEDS

[3] = Aqueous solubility at pH 7.4; type: physicochemical; details: buffer
Cytochrome P450 3A4 = Cytochrome P450 3A4 (Homo sapiens, UniProt P08684); experiment: Inhibition of CYP3A4 (unknown origin) using BFC substrate after 30 mins by fluorescence assay; type: ADME
[4] = molecular target: T2, Serine/threonine-protein kinase PLK4 (Homo sapiens, UniProt O00444); experiment: Inhibition of human N-terminal GST-tagged PLK4 (1 to 391 residues) expressed in Escherichia coli incubated for 30 mins by ELISA method
T2 sequence (O00444 whole entry): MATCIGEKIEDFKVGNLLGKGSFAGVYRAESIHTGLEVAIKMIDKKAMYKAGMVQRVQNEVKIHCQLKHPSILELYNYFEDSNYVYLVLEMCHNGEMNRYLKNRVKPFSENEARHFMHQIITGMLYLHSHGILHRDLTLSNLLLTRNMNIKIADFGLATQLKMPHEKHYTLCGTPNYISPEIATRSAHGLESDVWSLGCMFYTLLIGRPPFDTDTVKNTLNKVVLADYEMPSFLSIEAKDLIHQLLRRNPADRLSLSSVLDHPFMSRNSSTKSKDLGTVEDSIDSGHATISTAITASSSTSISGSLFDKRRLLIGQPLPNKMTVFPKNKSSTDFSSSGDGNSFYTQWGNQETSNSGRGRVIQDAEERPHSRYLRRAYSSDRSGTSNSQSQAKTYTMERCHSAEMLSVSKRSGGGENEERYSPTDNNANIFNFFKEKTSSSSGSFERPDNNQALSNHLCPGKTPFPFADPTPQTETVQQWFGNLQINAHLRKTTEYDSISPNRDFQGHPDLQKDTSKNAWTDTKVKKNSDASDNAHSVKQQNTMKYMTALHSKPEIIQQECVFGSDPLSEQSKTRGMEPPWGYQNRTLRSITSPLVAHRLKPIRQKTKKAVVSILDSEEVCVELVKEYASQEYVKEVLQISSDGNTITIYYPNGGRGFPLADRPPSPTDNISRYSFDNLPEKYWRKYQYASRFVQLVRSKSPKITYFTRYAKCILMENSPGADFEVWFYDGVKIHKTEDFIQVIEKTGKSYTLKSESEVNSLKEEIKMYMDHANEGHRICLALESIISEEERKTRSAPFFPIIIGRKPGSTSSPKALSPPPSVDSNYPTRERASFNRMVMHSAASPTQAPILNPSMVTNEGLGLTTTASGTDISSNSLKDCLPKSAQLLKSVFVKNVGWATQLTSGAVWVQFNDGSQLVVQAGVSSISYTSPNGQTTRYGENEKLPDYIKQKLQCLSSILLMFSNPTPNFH

[5] = molecular target: Serine/threonine-protein kinase PLK1 (Homo sapiens, UniProt P53350); experiment: Inhibition of PLK1 (unknown origin) by FRET-based homogeneous assay
[6] = molecular target: Serine/threonine-protein kinase PLK2 (Homo sapiens, UniProt Q9NYY3); experiment: Inhibition of PLK2 (unknown origin) by FRET-based homogeneous assay
CYP1A2 = molecular target: T3, CYP1A2 (Homo sapiens, UniProt P05177); experiment: Inhibition of CYP1A2 (unknown origin) using CEC substrate after 15 mins by fluorescence assay; type: ADME; details: probe CEC
T3 sequence (P05177 whole entry): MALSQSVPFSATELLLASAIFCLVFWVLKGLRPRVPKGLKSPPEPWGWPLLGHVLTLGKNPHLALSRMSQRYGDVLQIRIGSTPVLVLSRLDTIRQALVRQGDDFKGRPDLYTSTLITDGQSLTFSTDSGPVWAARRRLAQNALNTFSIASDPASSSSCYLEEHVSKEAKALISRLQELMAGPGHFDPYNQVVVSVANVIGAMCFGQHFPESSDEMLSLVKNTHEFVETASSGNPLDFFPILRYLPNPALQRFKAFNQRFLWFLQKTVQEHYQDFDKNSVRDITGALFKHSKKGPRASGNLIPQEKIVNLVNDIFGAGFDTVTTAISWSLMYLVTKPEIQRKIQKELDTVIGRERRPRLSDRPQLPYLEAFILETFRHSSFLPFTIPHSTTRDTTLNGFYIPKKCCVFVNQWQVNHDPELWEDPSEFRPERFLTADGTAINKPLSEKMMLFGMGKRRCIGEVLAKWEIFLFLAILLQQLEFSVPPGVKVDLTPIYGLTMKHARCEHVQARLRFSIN

[7] = Cmax in SCID mouse at 50 mg/kg, ip after 8 hrs by LCMS/MS method; type: ADME, organism-based; design: dose 50 mg/kg, route intraperitoneal; details: in vivo
Cytochrome P450 2D6 = Cytochrome P450 2D6 (Homo sapiens, UniProt P10635); experiment: (§1) Inhibition of CYP2D6 (unknown origin) using AMMC substrate after 45 mins by fluorescence assay; type: ADME
[8] = molecular target: Serine/threonine-protein kinase PLK3 (Homo sapiens, UniProt Q9H4B4); experiment: Inhibition of PLK3 (unknown origin) by FRET-based homogeneous assay
[9] = molecular target: Vascular endothelial growth factor receptor 2 (Homo sapiens, UniProt P35968); experiment: Inhibition of KDR (unknown origin) by FRET-based homogeneous assay
Aurora kinase B = Aurora kinase B (Homo sapiens, UniProt Q96GD4); experiment: Inhibition of AURKB (unknown origin) by FRET-based homogeneous assay
[10] = Half life in human liver microsomes at 1 uM in presence of NADPH by LC-MS method; type: ADME
[11] = Half life in mouse liver microsomes at 1 uM in presence of NADPH by LC-MS method; type: ADME
Cytochrome P450 2C9 = Cytochrome P450 2C9 (Homo sapiens, UniProt P11712); experiment: Inhibition of CYP2C9 (unknown origin) using MFC substrate after 45 mins by fluorescence assay; type: ADME
[12] = AUC in SCID mouse at 50 mg/kg, ip after 8 hrs by LCMS/MS method; type: ADME, organism-based; design: time < 8 hr, dose 50 mg/kg, route intraperitoneal; details: plasma
MCF7 = experiment: Cytotoxicity against human MCF7 cells after 5 days by SRB assay; type: functional; details: MCF7, 120 h
MDA-MB-468 [13] = experiment: Cytotoxicity against human MDA-MB-468 cells after 5 days by SRB assay; type: functional; details: MDA-MB-468, 120 h
Cytochrome P450 2C19 = Cytochrome P450 2C19 (Homo sapiens, UniProt P33261); experiment: Inhibition of CYP2C19 (unknown origin) using MFC substrate after 30 mins by fluorescence assay; type: ADME
CYP2D6 = CYP2D6 (Homo sapiens, UniProt P10635); experiment: as §1; type: ADME; details: probe AMMC
MDA-MB-468 [14] = experiment: Antitumor activity against human MDA-MB-468 cells xenografted in mouse assessed as tumor growth inhibition at 50 mg/kg, ip QD for 21 days; type: functional, organism-based; design: dose 50 mg/kg

Sequence of Cytochrome P450 3A4 (P08684 whole entry, the tested form may be a part): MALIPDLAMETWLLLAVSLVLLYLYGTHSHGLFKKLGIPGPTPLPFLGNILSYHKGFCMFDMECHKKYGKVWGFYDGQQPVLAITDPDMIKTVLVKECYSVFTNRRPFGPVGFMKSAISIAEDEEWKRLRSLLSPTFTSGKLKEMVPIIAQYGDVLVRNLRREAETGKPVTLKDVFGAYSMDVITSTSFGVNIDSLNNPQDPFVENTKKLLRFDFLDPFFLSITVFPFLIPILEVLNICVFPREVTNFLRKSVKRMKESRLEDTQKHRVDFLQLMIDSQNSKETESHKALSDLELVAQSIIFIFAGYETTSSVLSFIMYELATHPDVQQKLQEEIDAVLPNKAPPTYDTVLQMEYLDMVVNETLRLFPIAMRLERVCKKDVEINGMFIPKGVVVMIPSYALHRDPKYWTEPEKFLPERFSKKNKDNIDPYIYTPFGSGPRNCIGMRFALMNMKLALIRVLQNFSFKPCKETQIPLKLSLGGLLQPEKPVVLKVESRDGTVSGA
Sequence of Cytochrome P450 2C9 (P11712 whole entry): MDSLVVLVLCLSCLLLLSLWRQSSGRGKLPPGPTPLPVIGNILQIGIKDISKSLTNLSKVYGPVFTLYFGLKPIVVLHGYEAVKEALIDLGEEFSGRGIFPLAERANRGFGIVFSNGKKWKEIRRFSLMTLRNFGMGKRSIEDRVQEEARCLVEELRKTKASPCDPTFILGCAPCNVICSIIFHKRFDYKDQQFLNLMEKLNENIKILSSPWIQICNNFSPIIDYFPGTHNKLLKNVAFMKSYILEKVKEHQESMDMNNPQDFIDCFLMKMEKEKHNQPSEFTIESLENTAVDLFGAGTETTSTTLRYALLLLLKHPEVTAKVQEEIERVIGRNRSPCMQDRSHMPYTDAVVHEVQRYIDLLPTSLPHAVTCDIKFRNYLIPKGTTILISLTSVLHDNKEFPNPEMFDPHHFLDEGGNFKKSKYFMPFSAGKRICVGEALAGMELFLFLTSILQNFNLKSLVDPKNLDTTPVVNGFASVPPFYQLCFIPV
Sequence of Cytochrome P450 2D6 (P10635 whole entry): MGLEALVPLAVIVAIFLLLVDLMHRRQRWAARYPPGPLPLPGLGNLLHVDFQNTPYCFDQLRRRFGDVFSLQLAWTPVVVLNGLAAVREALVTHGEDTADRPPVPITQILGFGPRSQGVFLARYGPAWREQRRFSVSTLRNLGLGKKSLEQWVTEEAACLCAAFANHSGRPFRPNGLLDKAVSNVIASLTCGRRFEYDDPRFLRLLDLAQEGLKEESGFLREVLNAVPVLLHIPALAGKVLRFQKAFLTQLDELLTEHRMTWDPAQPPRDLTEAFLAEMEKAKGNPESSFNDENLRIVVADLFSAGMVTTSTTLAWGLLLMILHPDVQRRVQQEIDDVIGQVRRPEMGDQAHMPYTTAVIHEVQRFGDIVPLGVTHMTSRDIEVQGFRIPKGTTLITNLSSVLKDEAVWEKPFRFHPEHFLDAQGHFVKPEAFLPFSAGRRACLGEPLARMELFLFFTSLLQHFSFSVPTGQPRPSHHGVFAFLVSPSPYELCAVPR
Sequence of CYP2D6 (P10635 whole entry): as above
Sequence of Serine/threonine-protein kinase PLK3 (Q9H4B4 whole entry): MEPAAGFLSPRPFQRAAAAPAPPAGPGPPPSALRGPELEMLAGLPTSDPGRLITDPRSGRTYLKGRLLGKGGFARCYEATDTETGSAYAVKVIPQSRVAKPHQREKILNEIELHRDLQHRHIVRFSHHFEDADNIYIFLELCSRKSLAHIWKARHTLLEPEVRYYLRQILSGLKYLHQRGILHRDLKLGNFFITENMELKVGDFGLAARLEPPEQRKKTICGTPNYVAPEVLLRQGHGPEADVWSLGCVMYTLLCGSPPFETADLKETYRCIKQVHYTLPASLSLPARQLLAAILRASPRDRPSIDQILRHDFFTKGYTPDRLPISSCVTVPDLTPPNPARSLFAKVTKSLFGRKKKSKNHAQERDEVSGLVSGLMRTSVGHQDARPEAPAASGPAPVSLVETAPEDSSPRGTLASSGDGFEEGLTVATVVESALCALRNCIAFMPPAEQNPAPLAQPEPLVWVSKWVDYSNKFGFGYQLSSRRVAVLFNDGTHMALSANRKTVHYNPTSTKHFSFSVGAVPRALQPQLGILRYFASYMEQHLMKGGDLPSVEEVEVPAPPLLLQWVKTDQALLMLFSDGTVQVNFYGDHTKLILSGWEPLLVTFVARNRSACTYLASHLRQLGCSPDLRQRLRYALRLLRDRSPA
Sequence of Aurora kinase B (Q96GD4 whole entry): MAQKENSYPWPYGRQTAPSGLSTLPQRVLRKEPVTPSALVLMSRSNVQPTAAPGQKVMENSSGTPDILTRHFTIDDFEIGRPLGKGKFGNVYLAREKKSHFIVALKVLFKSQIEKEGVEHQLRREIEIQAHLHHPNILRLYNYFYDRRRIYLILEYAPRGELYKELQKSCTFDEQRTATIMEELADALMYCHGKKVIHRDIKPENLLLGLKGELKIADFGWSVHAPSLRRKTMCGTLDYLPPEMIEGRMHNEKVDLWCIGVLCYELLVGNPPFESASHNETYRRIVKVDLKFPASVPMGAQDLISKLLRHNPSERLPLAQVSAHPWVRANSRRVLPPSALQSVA
Sequence of Cytochrome P450 2C19 (P33261 whole entry): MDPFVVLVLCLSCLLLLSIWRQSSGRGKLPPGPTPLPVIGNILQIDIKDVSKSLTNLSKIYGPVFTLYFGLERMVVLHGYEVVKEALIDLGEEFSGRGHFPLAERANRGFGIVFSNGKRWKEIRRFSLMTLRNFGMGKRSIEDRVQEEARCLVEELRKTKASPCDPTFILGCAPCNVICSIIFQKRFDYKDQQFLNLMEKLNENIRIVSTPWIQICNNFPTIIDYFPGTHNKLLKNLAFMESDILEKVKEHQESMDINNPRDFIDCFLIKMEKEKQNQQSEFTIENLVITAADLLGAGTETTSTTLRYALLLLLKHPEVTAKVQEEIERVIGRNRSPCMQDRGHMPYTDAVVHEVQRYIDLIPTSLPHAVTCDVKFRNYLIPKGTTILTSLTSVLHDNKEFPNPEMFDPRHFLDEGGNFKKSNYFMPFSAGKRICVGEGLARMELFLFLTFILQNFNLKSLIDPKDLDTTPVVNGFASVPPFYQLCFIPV
Sequence of Serine/threonine-protein kinase PLK2 (Q9NYY3 whole entry): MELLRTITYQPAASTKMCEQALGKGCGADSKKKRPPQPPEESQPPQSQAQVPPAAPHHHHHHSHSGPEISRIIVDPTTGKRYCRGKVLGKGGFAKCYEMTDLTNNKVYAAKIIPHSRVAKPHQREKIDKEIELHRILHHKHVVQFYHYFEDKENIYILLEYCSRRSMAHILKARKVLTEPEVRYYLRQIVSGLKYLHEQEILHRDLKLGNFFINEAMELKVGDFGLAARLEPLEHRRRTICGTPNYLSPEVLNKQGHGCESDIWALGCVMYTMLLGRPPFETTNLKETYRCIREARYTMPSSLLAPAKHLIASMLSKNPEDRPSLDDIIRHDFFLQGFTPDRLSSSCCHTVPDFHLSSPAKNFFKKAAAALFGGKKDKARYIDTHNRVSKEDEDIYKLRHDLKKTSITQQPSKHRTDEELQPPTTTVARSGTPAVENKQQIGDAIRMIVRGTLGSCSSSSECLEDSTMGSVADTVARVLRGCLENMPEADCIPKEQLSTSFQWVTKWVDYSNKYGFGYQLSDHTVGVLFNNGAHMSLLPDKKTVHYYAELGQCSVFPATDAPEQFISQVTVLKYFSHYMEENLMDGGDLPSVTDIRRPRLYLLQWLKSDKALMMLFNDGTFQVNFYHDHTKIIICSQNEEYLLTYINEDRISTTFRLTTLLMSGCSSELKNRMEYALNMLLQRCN
Sequence of Serine/threonine-protein kinase PLK1 (P53350 whole entry): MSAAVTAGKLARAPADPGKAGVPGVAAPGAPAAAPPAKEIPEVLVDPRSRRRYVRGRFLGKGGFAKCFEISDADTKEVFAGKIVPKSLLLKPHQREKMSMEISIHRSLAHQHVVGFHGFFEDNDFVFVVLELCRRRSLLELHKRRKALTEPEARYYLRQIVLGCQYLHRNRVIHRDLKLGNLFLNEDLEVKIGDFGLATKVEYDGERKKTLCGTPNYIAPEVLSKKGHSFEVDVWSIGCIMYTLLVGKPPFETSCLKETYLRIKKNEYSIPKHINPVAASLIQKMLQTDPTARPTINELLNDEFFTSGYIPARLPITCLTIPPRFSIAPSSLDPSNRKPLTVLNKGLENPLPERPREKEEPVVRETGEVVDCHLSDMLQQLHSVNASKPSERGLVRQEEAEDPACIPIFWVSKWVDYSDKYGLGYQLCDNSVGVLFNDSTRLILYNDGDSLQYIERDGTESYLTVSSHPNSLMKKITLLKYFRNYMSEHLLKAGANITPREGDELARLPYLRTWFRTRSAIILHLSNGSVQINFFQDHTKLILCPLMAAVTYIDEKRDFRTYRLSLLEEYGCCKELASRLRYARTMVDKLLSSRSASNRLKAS

For `O=C1Nc2ccccc2/C1=C\c1ccc2c(/C=C/c3ccncc3)n[nH]c2c1`, the fraction unbound [1] was 0.011, the pIC50 [2] was 7.46 and the solubility [3] was 0.21 µg/mL (≈ 0.576 µM). It also gave a pIC50 (Cytochrome P450 3A4) of 6.00, a pIC50 [4] of 8.62 and a pIC50 [5] of less than 4.00. It also gave a pIC50 [6] of less than 4.00, an IC50 at 15 min (CYP1A2) greater than 10000 nM and a Cmax [7] of less than 10 ng/mL. The pIC50 (Cytochrome P450 2D6) was 4.70, the pIC50 [8] was less than 4.00 and the pIC50 [9] was 7.47. For the same compound, the pIC50 (Aurora kinase B) was 7.62, the half-life at 1 µM [10] was 29 min and the half-life at 1 µM [11] was 6 min.
Compound `CN(C)Cc1ccc(/C=C/c2n[nH]c3cc(/C=C4/C(=O)Nc5ccccc54)ccc23)cc1` has a fraction unbound [1] of 0.016, a pIC50 (Cytochrome P450 2C9) of 5.85 and a pIC50 [2] of 7.46. The solubility [3] was less than 0.1 µg/mL, the pIC50 (Cytochrome P450 3A4) was 6.03 and the pIC50 [4] was 8.40. For the same compound, the IC50 at 15 min (CYP1A2) was greater than 10000 nM, the AUC at 8 h [12] was 830 ng·h/mL and the Cmax [7] was 870 ng/mL. It also gave a GI50 (MCF7) of 7 nM, a half-life at 1 µM [10] of 40 min and a half-life at 1 µM [11] of 7 min. The GI50 (MDA-MB-468 [13]) was 12 nM.
For `COc1ccc2c(c1)/C(=C\c1ccc3c(/C=C/c4ccc(N5CCN(C)CC5)nc4)n[nH]c3c1)C(=O)N2`, the fraction unbound [1] was 0.009, the pIC50 (Cytochrome P450 2C9) was 5.80 and the solubility [3] was less than 0.1 µg/mL. For the same compound, the pIC50 (Cytochrome P450 2C19) was 6.10, the pIC50 (Cytochrome P450 3A4) was less than 6.00 and the pIC50 [4] was 8.14. For the same compound, the IC50 at 15 min (CYP1A2) was greater than 10000 nM, the AUC at 8 h [12] was 190 ng·h/mL and the Cmax [7] was 90 ng/mL. For the same compound, the GI50 (MCF7) was less than 10 nM, the IC50 at 45 min (CYP2D6) was greater than 10000 nM and the half-life at 1 µM [10] was 14 min. For the same compound, the half-life at 1 µM [11] was 2 min.
Work on `Cc1cc(Nc2cc(N3CCN(C)CC3)nc(Sc3ccc(NC(=O)C4CC4)cc3)n2)n[nH]1` yielded a TGI (MDA-MB-468 [14]) of 73%.

Source: ChEMBL document CHEMBL3351767, “The discovery of Polo-like kinase 4 inhibitors: design and optimization of spiro[cyclopropane-1,3'[3H]indol]-2'(1'H).ones as orally bioavailable antitumor agents” (J Med Chem, 2015)
